Experimental data reported in patent US8497303B2, “Method to enhance aqueous solubility of poorly soluble actives” (Dow Global Technologies LLC, priority 2008, dated 2013).
Where two headings read alike, the source gives them in different places.

Assays:
[1] = for Percent Loading Using PEG 400: saturated solution, HPLC
Protocol: For comparison, solutions of PEG 400 and water are prepared in an analogous manner to those including the MPEG 350.
For comparison, solutions of PEG 400 and water are prepared in an analogous manner.

[2] = for Percent Loading Using MPEG 350: saturated solution, HPLC
Protocol: The solution is then stirred with a vortex mixer for approximately 1 to 2 minutes, then shaken with an automated shaker for about 45 minutes. […] The sample is then left overnight in a water bath at about 29° C.
The solution is stirred with a vortex mixer for approximately 1 to 2 minutes, then shaken with an automated shaker for about 45 minutes. […] The sample is left overnight in a water bath at about 30° C.
The solutions are then filtered through a syringe filter and the concentrations are characterized by HPLC. The percent water in the MPEG solutions varies from 0 to 20 percent.
The solution is then filtered through a syringe filter and the concentration is characterized by HPLC. The percent water in the MPEG solutions varies from 0 to 20 percent.

Solubility (maximum loading) in PEG 400 [1] [weight percent] | Percent Loading Using PEG 400 ([1]; 0 percent water in PEG 400) [%] | Percent Loading Using PEG 400 ([1]; 5 percent water in PEG 400) [%] | Percent Loading Using PEG 400 ([1]; 10 percent water in PEG 400) [%] | Percent Loading Using PEG 400 ([1]; 15 percent water in PEG 400) [%] | Percent Loading Using PEG 400 ([1]; 20 percent water in PEG 400) [%] | Increase in loading compared to the MPEG 350 solution containing no water ([2]; 95:5 MPEG 350:water vs MPEG 350 without water) [%] | More loading with 95:5 MPEG 350:water blend compared to the best PEG 400:water blend ([2]; 95:5 MPEG 350:water vs PEG 400:water blend with highest loading) [weight percent] | Appearance of solution in MPEG 350 ([2]; approximately 15.4 weight percent solution, left overnight in water bath at about 30° C.) | Amount of drug loading in MPEG 350 solution higher than in PEG 400 solution ([2]; neat MPEG 350 vs neat PEG 400) | Maximum solubility for MPEG 350:water blends greater than that for PEG 400:water blends [2] [%] | Percent Loading Using MPEG 350 ([2]; 0 percent water in MPEG 350) [%] | Percent Loading Using MPEG 350 ([2]; 5 percent water in MPEG 350) [%] | Percent Loading Using MPEG 350 ([2]; 10 percent water in MPEG 350) [%] | Percent Loading Using MPEG 350 ([2]; 15 percent water in MPEG 350) [%] | Percent Loading Using MPEG 350 ([2]; 20 percent water in MPEG 350) [%] | Loading with MPEG:water blends relative to PEG:water blends ([2]; when water is added) | Amount solubilized by neat PEG 400 solution relative to neat MPEG 350 solution [1] | SMILES
21.6±0.8 | 21.60 | 24.31 | 21.48 | 17.24 | 11.56 | – | – | – | – | – | – | – | – | – | – | – | – | CC(C)Cc1ccc(C(C)C(=O)O)cc1 (centres unmarked) [Ibuprofen, ibuprofen]
– | – | – | – | – | – | 24.4 | 29.2 | some suspended material | approximately 13.6% | – | – | – | – | – | – | – | – | COc1ccc2cc([C@H](C)C(=O)O)ccc2c1 [Naproxen, naproxen]
– | 16.82 | 20.62 | 21.78 | 22.12 | 21.59 | – | – | – | – | 10.6 | 16.20 | 21.93 | 23.62 | 24.47 | 24.01 | higher loading | slightly more | CC(=O)Nc1ccc(O)cc1 [Acetaminophen]
